Reference: US20250188085A1, “COMPOSITIONS AND METHODS FOR INHIBITION OF RAS” (THERAS, INC., priority 2022, published 2025)
pIC50: −log10 of the molar value. Where two headings read alike, the source gives them in different places.

Key:
[1] = target: T1, GDP-loaded KRAS4b (amino acids 1-169) G12C/C118S protein (Homo sapiens, UniProt P01116, C118S/G12C); experiment: Covalent cysteine 12 modification by MALDI-TOF MS, GDP-loaded KRAS G12C; type: binding; settings: 15 minutes reaction time point
T1 construct: KRAS4b (amino acids 1-169) G12C/C118S protein; made in house
Summary of the method: (§1)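 KRAS4b 1-169 G12C/C118S loaded with GDP, GppNHp or GTP was used at 1 μM in 20 mM HEPES, 150 mM NaCl, 1 mM MgCl2, pH 7.3, and incubated with compound (5 mM DMSO stock) at room temperature in the dark. % modification at 15 min is adduct peak height over total protein peak heights by linear-mode MALDI-TOF.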

[2] = target: T2, Avi-KRAS G12C (1-169) GppNHp/RAF1 RBD-3×FLAG (52-151) (Homo sapiens, UniProt P01116, G12C); experiment: Raf1 RBD-KRAS G12C-GppNHp disruption (protein:protein interaction HTRF assay); type: biochemical
T2 construct: Avi-KRAS G12C (1-169) GppNHp/RAF1 RBD-3×FLAG (52-151)
Summary of the method: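 HTRF measuring disruption of 50 nM Avi-KRAS G12C (1-169) loaded with GppNHp binding RAF1 RBD-3×FLAG (52-151), in pH 7.5 Tris buffer with 5 mM MgCl2, 0.1% BSA, 10% DMSO. KRAS preincubated with compound 1 h, then RBD 1 h, then detection reagents 1 h, all at room temperature. Compound titration 30-0.02 μM; activity expressed as percent of DMSO control.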

[3] = target: T3, GppNHp-loaded KRAS4b (amino acids 1-169) G12C/C118S protein (Homo sapiens, UniProt P01116, C118S/G12C); experiment: Covalent cysteine 12 modification by MALDI-TOF MS, GppNHp-loaded KRAS G12C; type: binding; settings: 15 minutes reaction time point
T3 construct: KRAS4b (amino acids 1-169) G12C/C118S protein; made in house
Summary of the method: as §1

[4] = tested on: pERK in NCI-H358 cells; experiment: Cell-based pERK HTRF assay; settings: 30 min incubation, read-out: pERK in NCI-H358 cell inhibition IC50
Summary of the method: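 Cells seeded at 4×10^4/well in RPMI with 10% FBS, then next day treated for 30 min with a 9-point, 3-fold series from 75 μM top concentration at 0.25% DMSO. Lysates were read for pERK by HTRF (d2/Eu cryptate antibodies) after 4–24 h at room temperature, emission at 615 nm.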

SMILES	GDP-KRAS G12C percent of modification [1]	pIC50 [2]	GppNHp-KRAS G12C percent of modification [3]	pIC50 ([4]; Homo sapiens, NCI-H358, 0.5 h)	pIC50 [4]
C=CC(=O)N1CC[C@@H](Oc2nc(OC[C@@]34CCCN3C[C@H](F)C4)nc3c(F)c(-c4ccc(F)c5sc(N)nc45)c(C(F)(F)F)cc23)[C@H]1C [Compound 29, 1-((2R,3R)-3-((7-(2-amino-7-fluorobenzo[d]thiazol-4-yl)-8-fluoro-2-(((2R,7aS)-2-fluorotetrahydro-1H-pyrrolizin-7a (5H)-yl)methoxy)-6-(trifluoromethyl)quinazolin-4-yl)oxy)-2-methylpyrrolidin-1-yl) prop-2-en-1-one]	A (percent of modification ≥70%)	≥ 6.30	A (percent of modification ≥70%)	≥ 7.00	–
C=CC(=O)N1CC(Oc2nc(OC[C@@]34CCCN3C[C@H](F)C4)nc3c(F)c(-c4ccc(F)c5sc(N)nc45)c(C(F)(F)F)cc23)[C@@H](C)C1 (stereo partly shown) [Compound 35]	C (10%≤modification <50%)	5.30 to 6.30	D (percent of modification <10%)	–	6.00 to 7.00
C=CC(=O)N1CC[C@@H](Oc2nc(OC[C@@]34CCCN3C[C@H](F)C4)nc3c(F)c(-c4ccc(F)c5sc(N)nc45)ncc23)C1 [Compound 43]	A (percent of modification ≥70%)	5.30 to 6.30	C (10%≤modification <50%)	< 6.00	–

Results, then the compound that gave them:

GDP-KRAS G12C percent of modification [1]	pIC50 [2]	GppNHp-KRAS G12C percent of modification [3]	pIC50 ([4]; Homo sapiens, NCI-H358, 0.5 h)	pIC50 [4]	SMILES
A (percent of modification ≥70%)	≥ 6.30	A (percent of modification ≥70%)	≥ 7.00	–	C=CC(=O)N1C[C@H](Oc2nc(OC[C@@]34CCCN3C[C@H](F)C4)nc3c(F)c(-c4ccc(F)c5sc(N)nc45)c(C(F)(F)F)cc23)[C@@H](F)C1 [Compound 28, 1-((3S,4S)-3-((7-(2-amino-7-fluorobenzo[d]thiazol-4-yl)-8-fluoro-2-(((2R,7aS)-2-fluorotetrahydro-1H-pyrrolizin-7a (5H)-yl)methoxy)-6-(trifluoromethyl)quinazolin-4-yl)oxy)-4-fluoropyrrolidin-1-yl) prop-2-en-1-one]
A (percent of modification ≥70%)	≥ 6.30	B (50≤percent of modification <70%)	≥ 7.00	–	C=CC(=O)N1CC(Oc2nc(OC[C@@]34CCCN3C[C@H](F)C4)nc3c(F)c(-c4ccc(F)c5sc(N)nc45)c(C(F)(F)F)cc23)[C@@H](C)C1 (stereo partly shown) [Compound 34]
C (10%≤modification <50%)	≥ 6.30	C (10%≤modification <50%)	≥ 7.00	–	C=CC(=O)N1CC[C@@H](Oc2nc(OC[C@@]34CCCN3C[C@H](F)C4)nc3c(F)c(-c4ccc(F)c5oc(N)nc45)c(C(F)(F)F)cc23)C1 [Compound 36, 1-((3R)-3-((7-(2-amino-7-fluorobenzo[d]oxazol-4-yl)-8-fluoro-2-(((2R,7aS)-2-fluorotetrahydro-1H-pyrrolizin-7a (5H)-yl)methoxy)-6-(trifluoromethyl)quinazolin-4-yl)oxy)pyrrolidin-1-yl) prop-2-en-1-one]
A (percent of modification ≥70%)	≥ 6.30	A (percent of modification ≥70%)	≥ 7.00	–	C=CC(=O)N1C[C@@H](F)[C@@H](Oc2nc(OC[C@@]34CCCN3C[C@H](F)C4)nc3c(F)c(-c4ccc(F)c5sc(N)nc45)c(C(F)(F)F)cc23)C1 [Compound 40, 1-((3S,4R)-3-((7-(2-amino-7-fluorobenzo[d]thiazol-4-yl)-8-fluoro-2-(((2R,7aS)-2-fluorotetrahydro-1H-pyrrolizin-7a (5H)-yl)methoxy)-6-(trifluoromethyl)quinazolin-4-yl)oxy)-4-fluoropyrrolidin-1-yl) prop-2-en-1-one]
